Legend:
[1] = Regression model of nutritional supplements and PD progression (PRO-PD score); assay type: in vivo, human; conditions: positive report of consistently using supplement over the previous 6 months, adjusted for years since diagnosis; for Mean change in PRO-PD score (SE)*: age, and gender; for Mean change in PRO-PD score (SE)**: age, gender, and income
From the text: When the diagnosis comes 10-15 years or more into the disease, the contribution or effectiveness of a disease-modifying therapy is diminished. Conversely, early detection and intervention by disease-modifying therapies can reduce rate of PD progression or delay disease onset. […] As used herein, PRO-PD is the Patient Reported Outcomes in Parkinson's Disease rating scale, which is used to describe PD disease severity among individuals with a clinical diagnosis of PD.
Certain foods and supplements are known to be associated with different rates of PD progression.

[2] = supplements / pharmaceuticals said to have been shown to slow or reduce progression; cited from earlier work

| Compound | Mean change in PRO-PD score (SE)* [1] | Mean change in PRO-PD score (SE)** [1] | Effect on PD progression (statement in words) [2] |
| --- | --- | --- | --- |
| CN1c2c(nc(N)[nH]c2=O)NCC1CNc1ccc(C(=O)N[C@@H](CCC(=O)O)C(=O)O)cc1 (stereo partly drawn) [5-Methyltetrahydrofolate (5-MTHF), 5-Methyltetrahydrofolate] | −17.1 | −25.1 | – |
| [Ca+2] [Calcium] | −6.2 | 12.5 | – |
| COC1=C(OC)C(=O)C(C/C=C(\C)CC/C=C(\C)CC/C=C(\C)CC/C=C(\C)CC/C=C(\C)CC/C=C(\C)CC/C=C(\C)CC/C=C(\C)CC/C=C(\C)CCC=C(C)C)=C(C)C1=O [CoQ10, coenzyme Q-10] | – | – | slow the progression of PD |
| C[C@]12CC[C@H](O)CC1=CC[C@@H]1[C@@H]2CC[C@]2(C)C(=O)CC[C@@H]12 [DHEA, dehydroepiandrosterone] | – | – | slow the progression of PD |
| N[C@@H](CCC(=O)N[C@@H](CS)C(=O)NCC(=O)O)C(=O)O [Glutathione, oral, glutathione] | – | – | slow the progression of PD |
| O=C1CC[C@@]2(O)[C@H]3Cc4ccc(O)c5c4[C@@]2(CCN3CC2CC2)[C@H]1O5 [Low-dose naltrexone, naltrexone] | – | – | reduce the rate of progression |
| NC(=O)C1=CN([C@@H]2O[C@H](COP(=O)(O)OP(=O)(O)OC[C@H]3O[C@@H](n4cnc5c(N)ncnc54)[C@H](O)[C@@H]3O)[C@@H](O)[C@H]2O)C=CC1 [NADH] | −9.7 | −25.2 | – |
| N[C@@H](Cc1ccc(O)c(O)c1)C(=O)O [levodopa] | – | – | reduce the rate of progression |
| C#CCN[C@@H]1CCc2ccccc21 [rasagiline] | – | – | reduce the rate of progression |
| C#CCN(C)[C@H](C)Cc1ccccc1 [selegeline] | – | – | reduce the rate of progression |
| Vitamin D | −26.1 | −3.6 | – |

From patent publication US20200008395A1, “METHOD OF USING HUMAN EXCREMENT AND SECRETIONS FOR EARLY DETECTION OF PARKINSON'S DISEASE” (NEURRX, SPC, priority 2017, published 2020)
